Assay: xn = mol fraction of the nth substance listed

O=S(=O)([N-]S(=O)(=O)C(F)(F)F)C(F)(F)F.[Li+] + CCCC[N+]1(C)CCCC1.O=S(=O)([N-]S(=O)(=O)C(F)(F)F)C(F)(F)F + O
viscosity [mPa·s], 100 kPa
Details	293.15 K	298.15 K	303.15 K	313.15 K	323.15 K	333.15 K	343.15 K	353.15 K	363.15 K
x1 = 0.2745, x2 = 0.2745	117	85.1	66.1	43	29.5	20.8	15.8	11.9	9.38
x1 = 0.3106, x2 = 0.2745	144	110	85.8	52.2	34.6	24.4	17.9	13.6	10.6
x1 = 0.3509, x2 = 0.2745	242	179	135	82.5	49.1	33.5	23.9	17.7	13.6
x1 = 0.3868, x2 = 0.2745	437	334	246	141	87.5	52.3	35.9	25.8	19.3
x1 = 0.4308, x2 = 0.2745	599	421	304	171	104	62.1	42	29.9	21.5

CCCC[N+]1(C)CCCC1.N#C[S-] + O
101 kPa
Details	viscosity [mPa·s]
298.15 K, x2 = 0.2203	68.6
298.15 K, x2 = 0.5252	28.9
298.15 K, x2 = 0.783	10.04
298.15 K, x2 = 0.8623	5.9
308.15 K, x2 = 0.5252	19.9
308.15 K, x2 = 0.6634	12.37
308.15 K, x2 = 0.8623	4.31
308.15 K, x2 = 0.9657	1.36
318.15 K, x2 = 0.2203	31.6
318.15 K, x2 = 0.8623	3.23
318.15 K, x2 = 0.9657	1.1
328.15 K, x2 = 0.0853	28.9
328.15 K, x2 = 0.783	4.19
338.15 K, x2 = 0	25.3
338.15 K, x2 = 0.2203	17.3
338.15 K, x2 = 0.783	3.27
338.15 K, x2 = 0.9657	0.79
348.15 K, x2 = 0.2203	13.32
348.15 K, x2 = 0.6634	4.42
348.15 K, x2 = 0.9657	0.69

CCCCn1cc[n+](C)c1C.O=S(=O)([N-]S(=O)(=O)C(F)(F)F)C(F)(F)F + COC(=O)OC
viscosity [mPa·s], 101.3 kPa
Details	288.15 K	293.15 K	298.15 K	303.15 K	308.15 K	313.15 K
x1 = 0.003134	0.698	0.653	0.611	0.575	0.541	0.511
x1 = 0.003617	0.704	0.658	0.615	0.579	0.544	0.513
x1 = 0.004671	0.717	0.669	0.626	0.588	0.553	0.522
x1 = 0.005144	0.722	0.674	0.63	0.592	0.557	0.525
x1 = 0.007528	0.753	0.701	0.655	0.614	0.578	0.544
x1 = 0.008467	0.763	0.711	0.664	0.622	0.585	0.551
x1 = 0.01016	0.786	0.731	0.682	0.639	0.6	0.564
x1 = 0.01046	0.789	0.734	0.685	0.641	0.602	0.566
x1 = 0.01168	0.805	0.748	0.697	0.653	0.612	0.577
x1 = 0.01411	0.833	0.773	0.721	0.674	0.632	0.597
x1 = 0.01541	0.85	0.788	0.734	0.685	0.643	0.604
x1 = 0.01579	0.854	0.791	0.738	0.688	0.645	0.606
x1 = 0.01626	0.86	0.798	0.743	0.693	0.651	0.61
x1 = 0.01704	0.87	0.807	0.751	0.7	0.657	0.616
x1 = 0.01948	0.898	0.832	0.773	0.722	0.675	0.634
x1 = 0.01969	0.901	0.834	0.775	0.723	0.677	0.635
x1 = 0.02378	0.947	0.876	0.813	0.758	0.709	0.665
x1 = 0.02412	0.949	0.878	0.816	0.76	0.711	0.667
x1 = 0.02675	0.977	0.903	0.838	0.781	0.731	0.684
x1 = 0.02717	0.98	0.907	0.842	0.784	0.734	0.688
x1 = 0.03309	1.044	0.964	0.894	0.833	0.778	0.729
x1 = 0.03594	1.073	0.99	0.918	0.855	0.798	0.748
x1 = 0.03715	1.086	1.002	0.929	0.864	0.807	0.756
x1 = 0.0405	1.117	1.031	0.957	0.89	0.83	0.777
x1 = 0.04889	1.211	1.117	1.034	0.96	0.895	0.837

— the CheMixHub ionic liquid set
